Blank lines part the entries; values can stand above or below the compound they belong to. The source made the active and inactive calls.
How the values were obtained:
BJ [1] = assay: BJ-TERT fibroblast viability loss – cell-based, RAS-independent, luminescence, dose response (AID 1933); type: functional; details: Homo sapiens
HEK293 [2] = assay: cells; type: functional, cell-based; details: Homo sapiens
HEK293 [3] = assay: cells; type: functional, cell-based; details: Homo sapiens; remark: listed apart in the source
Tumor necrosis factor = Tumor necrosis factor (Homo sapiens, UniProt P01375); assay: analog potency on TNFa NF-kB signaling – cell-based, revised, SAR follow-up (AID 2337); type: functional
Tumor necrosis factor, sequence (P01375 whole entry): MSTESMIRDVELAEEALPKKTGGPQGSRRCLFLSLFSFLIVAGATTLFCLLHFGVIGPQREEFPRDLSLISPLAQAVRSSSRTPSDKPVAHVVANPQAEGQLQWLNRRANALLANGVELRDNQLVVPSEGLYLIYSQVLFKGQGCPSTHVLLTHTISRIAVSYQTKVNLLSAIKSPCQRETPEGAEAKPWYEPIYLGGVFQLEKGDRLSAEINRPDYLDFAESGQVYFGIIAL

Prothrombin = Prothrombin (Homo sapiens, UniProt P00734); assay: Thrombin 1536 HTS Dose Response Confirmation. [Related pubchem assays: 1046 (Thrombin 1536 HTS; hits were confirmed in this assay)]; type: functional
HEK293 [4] = assay: inhibition of NOD1-driven NF-kB reporter – cell-based, luminescence, uHTS, primary screen (AID 1578); type: functional; details: Homo sapiens
HEK293 [5] = assay: cells; details: Homo sapiens
BJ [6] = assay: growth inhibition of engineered Ras-driven BJ cells – cell-based, alamar blue fluorescence, cherrypicked samples, dose response (AID 2631); type: functional; details: Homo sapiens;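 also: confirmatory dose-response assay in RAS-dependent BJ fibroblasts engineered with TERT, LT and ST, with cytotoxicity read by fluorescence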
[7] = DRD fibroblast viability loss – cell-based, non-viral oncogenic, luminescence, dose response (AID 1934); type: functional; details: Homo sapiens
BJ [8] = assay: BJ-TERT-LT-ST fibroblast viability loss – cell-based, RAS-independent, luminescence, dose response (AID 1935); type: functional; details: Homo sapiens;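 also: BJ fibroblasts immortalized with TERT plus LT and ST oncogenes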
[9] = molecular target: T1, Nucleotide-binding oligomerization domain-containing protein 1 (Homo sapiens, UniProt Q9Y239); assay: blockers of NOD1 pathway activity – revised, SAR follow-up (AID 2333); type: functional
T1 sequence (Q9Y239 whole entry): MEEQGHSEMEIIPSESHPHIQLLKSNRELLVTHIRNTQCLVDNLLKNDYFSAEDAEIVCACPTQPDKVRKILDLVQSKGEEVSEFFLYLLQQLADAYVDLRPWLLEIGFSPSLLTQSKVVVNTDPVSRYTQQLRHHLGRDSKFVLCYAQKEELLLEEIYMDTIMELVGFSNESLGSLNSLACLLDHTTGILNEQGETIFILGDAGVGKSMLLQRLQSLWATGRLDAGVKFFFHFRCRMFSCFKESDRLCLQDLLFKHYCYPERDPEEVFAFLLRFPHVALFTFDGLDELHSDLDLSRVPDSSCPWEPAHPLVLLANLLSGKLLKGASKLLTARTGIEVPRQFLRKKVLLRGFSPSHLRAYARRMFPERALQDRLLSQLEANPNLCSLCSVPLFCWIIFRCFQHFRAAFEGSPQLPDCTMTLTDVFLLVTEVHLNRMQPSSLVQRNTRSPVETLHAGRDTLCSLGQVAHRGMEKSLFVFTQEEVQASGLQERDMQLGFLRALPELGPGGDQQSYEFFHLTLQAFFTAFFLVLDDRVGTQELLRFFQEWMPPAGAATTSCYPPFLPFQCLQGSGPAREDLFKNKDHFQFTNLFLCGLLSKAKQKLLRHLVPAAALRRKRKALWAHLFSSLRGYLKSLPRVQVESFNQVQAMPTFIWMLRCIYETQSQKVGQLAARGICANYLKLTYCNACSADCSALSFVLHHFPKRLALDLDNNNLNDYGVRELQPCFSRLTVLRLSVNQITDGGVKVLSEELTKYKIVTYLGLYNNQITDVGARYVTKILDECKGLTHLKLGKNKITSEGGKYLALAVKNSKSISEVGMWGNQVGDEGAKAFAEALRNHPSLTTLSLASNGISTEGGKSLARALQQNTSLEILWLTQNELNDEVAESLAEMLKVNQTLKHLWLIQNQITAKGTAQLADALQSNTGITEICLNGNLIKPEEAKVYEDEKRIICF

HEK293 [10] = assay: NOD2 signaling inhibitors in MDP-stimulated cells, cell-based, uHTS, luminescence (AID 2001); type: functional; details: Homo sapiens
BJ [11] = assay: cells; type: functional, cell-based; details: Homo sapiens
Phospholipase A2 = Phospholipase A2 (Homo sapiens, UniProt P04054); type: functional;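 also: confirmatory dose-response counterscreen on phospholipase A2, testing hits that came from an ultra-high-throughput screen for ATG4B inhibitors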
Phospholipase A2, sequence (P04054 whole entry): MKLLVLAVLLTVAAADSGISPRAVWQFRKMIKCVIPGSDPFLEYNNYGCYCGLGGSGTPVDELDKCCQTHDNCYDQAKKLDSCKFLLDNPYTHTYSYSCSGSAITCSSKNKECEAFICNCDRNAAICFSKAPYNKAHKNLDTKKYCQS

Cysteine protease ATG4B = molecular target: T2, Cysteine protease ATG4B (Homo sapiens, UniProt Q9Y4P1); type: functional;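 also: Fluorescence-based dose-response confirmation assay measuring inhibition of ATG4B activity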
T2 sequence (Q9Y4P1 whole entry): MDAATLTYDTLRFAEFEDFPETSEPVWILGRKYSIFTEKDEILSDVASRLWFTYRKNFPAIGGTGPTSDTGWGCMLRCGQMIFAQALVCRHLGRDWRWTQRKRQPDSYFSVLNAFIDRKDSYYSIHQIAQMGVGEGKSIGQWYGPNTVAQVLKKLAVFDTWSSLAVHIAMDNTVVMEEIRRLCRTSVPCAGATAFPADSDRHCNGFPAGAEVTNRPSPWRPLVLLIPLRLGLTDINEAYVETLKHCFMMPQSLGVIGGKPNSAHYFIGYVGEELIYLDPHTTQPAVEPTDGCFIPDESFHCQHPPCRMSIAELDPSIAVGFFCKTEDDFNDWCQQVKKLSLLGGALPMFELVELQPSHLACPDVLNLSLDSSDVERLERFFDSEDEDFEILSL

[12] = reduction of Shn3 3'UTR-driven luciferase in osteoblasts – cell-based, Clone20 osteoblasts, firefly luciferase, cherry-picked, dose response (AID 624132); type: functional;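 also: firefly luciferase luminescence from reporter carrying the Shn3 3'UTR in osteoblasts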
[13] = non-specific 3'UTR reporter inhibition in Clone20-Shn3RL – cell-based, Renilla luciferase, cherry-picked, counter-screen for Shn3 inhibitor project, dose response (AID 624133); type: functional
[14] = MIN6 cell viability loss – mouse insulinoma, cytotoxicity control, dose response (AID 2122); type: functional;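 also: confirmatory high-throughput counterscreen run to flag cytotoxic compounds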
[15] = loss of viability in HepG2 cells – cell-based, CellTiter-Glo, cherry-picked, cytotoxicity control for Shn3 inhibitor project, dose response (AID 624134); type: functional
[16] = decrease of insulin promoter-GFP reporter – imaging, high-content screening, mouse beta cells (AID 1628); type: functional; details: MIN6
HEK293 [17] = assay: cells; type: functional, cell-based; details: Homo sapiens; remark: listed apart in the source
[18] = molecular target: Nucleotide-binding oligomerization domain-containing protein 2 (Homo sapiens, UniProt Q9HC29); assay: inhibition of NOD2-driven NF-kB reporter – cell-based, luminescence, uHTS, HEK293 (AID 1566); type: functional
Nucleotide-binding oligomerization domain-containing protein 2, sequence (Q9HC29 whole entry, the tested form may be a part): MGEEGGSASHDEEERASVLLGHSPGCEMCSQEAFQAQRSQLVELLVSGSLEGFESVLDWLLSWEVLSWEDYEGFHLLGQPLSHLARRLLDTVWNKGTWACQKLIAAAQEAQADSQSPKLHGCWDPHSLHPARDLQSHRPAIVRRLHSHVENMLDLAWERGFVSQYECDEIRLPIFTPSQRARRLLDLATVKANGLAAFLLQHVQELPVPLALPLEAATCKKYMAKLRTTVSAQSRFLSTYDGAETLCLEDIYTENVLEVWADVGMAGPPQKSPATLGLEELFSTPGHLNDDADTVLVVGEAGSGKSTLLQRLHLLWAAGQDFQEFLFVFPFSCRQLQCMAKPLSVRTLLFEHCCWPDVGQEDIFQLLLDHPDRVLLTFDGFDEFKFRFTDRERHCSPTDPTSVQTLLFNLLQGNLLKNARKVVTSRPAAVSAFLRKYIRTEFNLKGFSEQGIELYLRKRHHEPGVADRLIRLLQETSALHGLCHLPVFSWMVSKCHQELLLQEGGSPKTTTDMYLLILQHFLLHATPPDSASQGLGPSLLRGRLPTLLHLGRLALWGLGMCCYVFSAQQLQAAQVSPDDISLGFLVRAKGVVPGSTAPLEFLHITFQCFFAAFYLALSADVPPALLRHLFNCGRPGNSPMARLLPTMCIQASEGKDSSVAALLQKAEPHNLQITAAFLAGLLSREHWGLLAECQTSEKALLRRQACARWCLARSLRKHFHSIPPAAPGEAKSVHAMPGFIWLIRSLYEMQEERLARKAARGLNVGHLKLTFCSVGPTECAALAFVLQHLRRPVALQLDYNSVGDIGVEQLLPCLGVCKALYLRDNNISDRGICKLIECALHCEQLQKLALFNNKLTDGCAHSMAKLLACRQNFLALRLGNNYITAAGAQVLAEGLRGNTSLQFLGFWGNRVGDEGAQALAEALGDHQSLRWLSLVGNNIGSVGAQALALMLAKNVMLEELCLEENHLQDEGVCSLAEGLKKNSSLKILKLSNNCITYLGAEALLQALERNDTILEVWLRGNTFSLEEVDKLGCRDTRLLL

[19] = molecular target: T3, Heat shock factor protein 1 (Mus musculus, UniProt P38532); assay: enhancement of HSF1-driven luciferase signal – cell-based, NIH3T3, luminescence, dose retest, confirmation (AID 435004); type: functional;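 also: stress induced by proteasome inhibitor MG132 added 30 min after compound; luciferase reporter driven by HSF1 response element in NIH3T3 cells; actives raise luminescence as potentiators of the MG132 stress response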
T3 sequence (P38532 whole entry): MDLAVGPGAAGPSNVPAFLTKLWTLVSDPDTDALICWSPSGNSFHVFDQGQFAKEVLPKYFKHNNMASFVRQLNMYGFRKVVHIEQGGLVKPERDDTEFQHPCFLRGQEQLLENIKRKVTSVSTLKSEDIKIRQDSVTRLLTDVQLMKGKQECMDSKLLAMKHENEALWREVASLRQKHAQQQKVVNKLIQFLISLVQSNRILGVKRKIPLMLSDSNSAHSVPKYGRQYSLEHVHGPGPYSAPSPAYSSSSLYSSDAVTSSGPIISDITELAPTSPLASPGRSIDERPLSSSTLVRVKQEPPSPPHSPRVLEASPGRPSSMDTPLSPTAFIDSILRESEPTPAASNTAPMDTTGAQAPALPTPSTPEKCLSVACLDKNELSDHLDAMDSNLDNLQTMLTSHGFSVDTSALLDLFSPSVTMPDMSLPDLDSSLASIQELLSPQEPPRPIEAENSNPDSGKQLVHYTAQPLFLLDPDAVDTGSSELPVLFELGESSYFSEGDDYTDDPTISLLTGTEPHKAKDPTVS

[20] = molecular target: T4, Zinc finger protein mex-5 (Caenorhabditis elegans, UniProt Q9XUB2); assay: potency of MEX-5 RNA-binding blockers – biochemical, C. elegans, fluorescence polarization, dose response (AID 1960)
T4 sequence (Q9XUB2 whole entry): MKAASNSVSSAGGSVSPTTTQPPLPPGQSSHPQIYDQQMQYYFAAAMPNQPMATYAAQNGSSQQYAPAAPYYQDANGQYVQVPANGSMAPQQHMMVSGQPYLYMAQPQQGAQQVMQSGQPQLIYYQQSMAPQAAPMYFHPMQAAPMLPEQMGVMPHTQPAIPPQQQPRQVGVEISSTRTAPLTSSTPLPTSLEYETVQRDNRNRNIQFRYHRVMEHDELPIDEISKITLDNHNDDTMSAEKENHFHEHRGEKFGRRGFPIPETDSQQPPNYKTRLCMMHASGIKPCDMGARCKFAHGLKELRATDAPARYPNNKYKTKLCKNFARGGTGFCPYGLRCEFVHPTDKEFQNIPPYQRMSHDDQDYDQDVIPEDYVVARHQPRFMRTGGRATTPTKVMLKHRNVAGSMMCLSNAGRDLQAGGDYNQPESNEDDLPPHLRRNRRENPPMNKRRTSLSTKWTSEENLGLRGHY

[21] = molecular target: T5, RNA-binding protein pos-1 (Caenorhabditis elegans, UniProt G5EF15); assay: disruptors of C. elegans POS-1 RNA interaction – biochemical, fluorescence polarization, dose response (AID 1964);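 also: purified POS-1 fused to maltose binding protein made in E. coli; potency of compounds blocking POS-1 binding to fluorescent RNA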
T5 sequence (G5EF15 whole entry): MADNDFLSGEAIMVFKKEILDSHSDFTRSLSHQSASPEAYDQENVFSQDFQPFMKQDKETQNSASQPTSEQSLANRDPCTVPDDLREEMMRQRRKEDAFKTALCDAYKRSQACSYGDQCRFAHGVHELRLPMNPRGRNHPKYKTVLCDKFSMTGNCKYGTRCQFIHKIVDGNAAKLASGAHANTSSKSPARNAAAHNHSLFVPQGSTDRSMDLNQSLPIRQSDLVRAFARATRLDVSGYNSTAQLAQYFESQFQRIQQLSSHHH

[22] = molecular target: Glucose-6-phosphate 1-dehydrogenase (Homo sapiens, UniProt P11413); assay: inhibition of Homo sapiens G6PD, dose series – biochemical, fluorescence, selectivity assay for P. falciparum G6PD inhibitor project, dose response (AID 504792); type: functional
Glucose-6-phosphate 1-dehydrogenase, sequence (P11413 whole entry): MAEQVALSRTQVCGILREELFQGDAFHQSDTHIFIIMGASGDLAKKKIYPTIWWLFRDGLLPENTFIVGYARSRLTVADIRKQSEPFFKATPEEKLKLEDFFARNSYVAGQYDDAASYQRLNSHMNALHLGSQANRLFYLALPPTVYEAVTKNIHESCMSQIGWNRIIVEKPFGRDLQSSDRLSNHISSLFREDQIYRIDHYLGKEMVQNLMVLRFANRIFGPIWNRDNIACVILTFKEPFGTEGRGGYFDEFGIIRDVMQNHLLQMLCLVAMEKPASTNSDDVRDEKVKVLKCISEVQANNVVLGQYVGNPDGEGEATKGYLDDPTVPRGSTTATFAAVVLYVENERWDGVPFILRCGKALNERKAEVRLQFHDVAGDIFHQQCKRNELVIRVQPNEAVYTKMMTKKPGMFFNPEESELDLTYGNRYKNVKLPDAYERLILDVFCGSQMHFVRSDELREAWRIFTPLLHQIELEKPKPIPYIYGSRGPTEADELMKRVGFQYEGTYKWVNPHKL

HEK293 [23] = assay: EBV LMP1 TES2 canonical NF-kB signalling blockers – cell-based, HEK293, luciferase, cherry-pick, dose response (AID 588343); type: functional; details: Homo sapiens

SMILES: Cc1cccc(Nc2nc(N)nc(CCl)n2)c1
EC50 (BJ [1]): 6.83 µM (inconclusive)
IC50 (HEK293 [2]): > 20 µM (inactive)
IC50 (HEK293 [3]): 9.2 µM (active)
IC50 (Tumor necrosis factor): > 20 µM (inactive)
IC50 (Prothrombin): > 50 µM (not active)
EC50 (HEK293 [4]): 8.71 µM (active)
IC50 (HEK293 [5]): > 20 µM (inactive)
EC50 (BJ [6]): 24.4 µM (active)
EC50 [7]: 3.92 µM (active)
EC50 (BJ [8]): > 75 µM (inconclusive)
IC50 [9]: 4.54 µM (active)
IC50 (HEK293 [10]): 10.2 µM (inactive)
EC50 (BJ [11]): 7.74 µM (active)

IC50 (Phospholipase A2): 12.3 µM (active)
IC50 (Cysteine protease ATG4B): 18.7 µM (active)
SMILES: O=C(CNCCc1ccc(Cl)cc1Cl)NCc1ccco1

IC50 (Phospholipase A2): 11.4 µM (active)
IC50 (Cysteine protease ATG4B): 5.43 µM (active)
SMILES: COC(=O)CSc1nc2cc(Cl)ccc2c(=O)n1C1CCCC1

SMILES: O=C(CN(C(=O)c1ccc(Cl)cc1)C1CCCCC1)Nc1ccc(Cl)c([N+](=O)[O-])c1
AC50 [12]: 8.11 µM (active)
AC50 [13]: 20.6 µM (active)
IC50 [14]: 1.85 µM (active)
AC50 [15]: 52.6 µM (active)
IC50 [16]: 3.45 µM (active)

SMILES: Cc1ccccc1C(=O)N1CCN(c2ccc(NC(=O)c3ccc4c(c3)OCCO4)cc2)CC1
IC50 (HEK293 [2]): 9.82 µM (active)
IC50 (HEK293 [3]): 4.55 µM (active)
AC50 [12]: 2.17 µM (active)
IC50 (Tumor necrosis factor): 4.73 µM (active)
IC50 (HEK293 [17]): > 20 µM (inactive)
EC50 (HEK293 [4]): 4.61 µM (active)
IC50 (HEK293 [5]): > 20 µM (inactive)
AC50 [15]: 4.24 µM (active)
IC50 [9]: 3.69 µM (active)
EC50 [18]: 10.2 µM (active)
IC50 (HEK293 [10]): 3.6 µM (active)

EC50 [19]: 20 µM (active)
EC50 [20]: 20.6 µM (inconclusive)
EC50 [21]: > 300 µM (not active)
IC50 [22]: > 80 µM (inactive)
SMILES: Oc1ccc(C2C[C@H]3CC[C@@H]2C3)cc1O (stereo not given in full)

SMILES: Cc1cccc(NC(=S)N=Nc2c(O)n(C)c3ccc(S(=O)(=O)N4CCOCC4)cc23)c1
AC50 (HEK293 [23]): 985 nM (active)
IC50 [14]: 5.04 µM (active)
IC50 [16]: 6.3 µM (active)

Reference: ChEMBL document CHEMBL1201862, “PubChem BioAssay data set” (2004)
